US20150266878A1, “NOVEL BI-RING PHENYL-PYRIDINES/PYRAZINES FOR THE TREATMENT OF CANCER” (HOFFMANN-LA ROCHE INC., priority 2012, published 2015)

Molecular target: T1, CDK8/Cyclin C (Homo sapiens, UniProt P49336)
T1 construct: purchased Invitrogen PV4402
Assay: CDK8/Cyclin C LANCE TR-FRET kinase assay
Assay type: biochemical
Conditions: CDK8/Cyclin C 10 nM, ATP 24 μM, Ulight-GS peptide 80 nM, 37° C. 30 mins
From the text: CDK8/Cyclin C LANCE TR-FRET Kinase Assay:
The biological activity of the compounds of the invention can be determined using the assay described below.
CDK8/Cyclin C protein was obtained from Invitrogen, cat #PV4402. ULight-Glycogen Synthase (Ulight-GS) peptide with sequence PASVPPSPSLSRHSSPHQ(pS)ED, and Europium-anti-phospho Glycogen Synthase (Ser641) [Eu-anti-P-GS (Ser641)] were obtained from Perkin Elmer, cat #TRF0131-M and cat #TRF0220. Adenosine-5′-triphosphate (ATP) was obtained from Invitrogen, cat #PV3227.
A mixture of (1) a compound of formula I, (2) substrate [Ulight-GS peptide (80 nM) and ATP (24 μM)], and (3) CDK8/Cyclin C (10 nM) in reaction buffer (50 mM Hepes, pH7.0, 10 mM MgCl2, 1 mM EGTA, 0.2 mg/mL BSA, 0.8 mM DTT) were incubated at 37° C. for 30 mins. Then, [Eu-anti-P-GS (Ser641)] (1.5 nM) was added. Following incubation at room temperature for 30 mins, the TR-FRET signals were detected using Envision reader (Ex 340 nm, Em 615 nm and 665 nm) from Perkin Elmer. The reactivity in percentage of inhibition or dose response was analyzed with GraphPad Prism 5 (GraphPad Software).

T1 sequence (P49336 whole entry): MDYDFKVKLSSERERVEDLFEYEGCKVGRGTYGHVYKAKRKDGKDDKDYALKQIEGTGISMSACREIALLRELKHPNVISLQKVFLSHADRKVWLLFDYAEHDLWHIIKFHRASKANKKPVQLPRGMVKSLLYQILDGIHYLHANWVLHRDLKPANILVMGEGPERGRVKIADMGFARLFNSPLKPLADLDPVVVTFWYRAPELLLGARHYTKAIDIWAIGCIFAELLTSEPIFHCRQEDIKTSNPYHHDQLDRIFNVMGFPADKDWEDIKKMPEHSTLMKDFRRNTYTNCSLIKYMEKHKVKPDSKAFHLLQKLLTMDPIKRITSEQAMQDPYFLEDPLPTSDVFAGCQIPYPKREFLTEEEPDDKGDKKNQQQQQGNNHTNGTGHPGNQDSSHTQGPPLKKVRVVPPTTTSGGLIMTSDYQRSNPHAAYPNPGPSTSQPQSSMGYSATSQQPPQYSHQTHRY
T1 sequence (P24863 whole entry partner): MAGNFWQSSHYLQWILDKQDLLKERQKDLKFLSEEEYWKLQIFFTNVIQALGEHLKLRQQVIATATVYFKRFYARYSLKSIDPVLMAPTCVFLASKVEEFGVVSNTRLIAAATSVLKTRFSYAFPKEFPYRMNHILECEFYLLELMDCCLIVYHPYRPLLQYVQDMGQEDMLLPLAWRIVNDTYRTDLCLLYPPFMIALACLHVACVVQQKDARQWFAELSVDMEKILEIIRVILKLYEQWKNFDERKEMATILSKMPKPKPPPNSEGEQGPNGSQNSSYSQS

Structure (SMILES) | IC50 [nM]
CS(=O)(=O)c1n[nH]c2ccc(-c3cncc(N[C@@H](CO)c4ccccc4)c3)cc12 [Example 23, (R)-2-[5-(3-Methanesulfonyl-1H-indazol-5-yl)-pyridin-3-ylamino]-2-phenyl-ethanol] | 3.2
NC(=O)[C@@H](Nc1cncc(-c2ccc3[nH]ncc3c2)c1)c1ccccc1 [Example 39, (S)-2-[5-(1H-indazol-5-yl)-pyridin-3-ylamino]-2-phenyl-acetamide] | 8.8
NC(=O)C(Nc1cncc(-c2ccc3[nH]ncc3c2)c1)c1ccccc1 (centres unmarked) [Example 37, 2-[5-(1H-Indazol-5-yl)-pyridin-3-ylamino]-2-phenyl-acetamide] | 3.4
Cc1n[nH]c2ccc(-c3cncc(N[C@@H](CNS(C)(=O)=O)c4ccccc4)c3)cc12 [Example 52, N-{(R)-2-[5-(3-Methyl-1H-indazol-5-yl)-pyridin-3-ylamino]-2-phenyl-ethyl}-methanesulfonamide] | 0.8
CCC(=O)NC[C@H](Nc1cncc(-c2ccc3[nH]nc(F)c3c2)c1)c1ccccc1 [Example 43, N-{(R)-2-[5-(3-Fluoro-1H-indazol-5-yl)-pyridin-3-ylamino]-2-phenyl-ethyl}-propionamide] | 2.3
O=c1[nH]c2ccc(-c3cncc(N[C@@H](CO)c4ccccc4)c3)cc2[nH]1 [Example 5, 5-[5-((R)-2-Hydroxy-1-phenyl-ethylamino)-pyridin-3-yl]-1,3-dihydro-benzoimidazol-2-one] | 1.1
O=C1Cc2cc(-c3cncc(N[C@@H](CO)c4ccccc4)c3)c(F)cc2N1 [Example 10, 6-Fluoro-5-[5-((R)-2-hydroxy-1-phenyl-ethylamino)-pyridin-3-yl]-1,3-dihydro-indol-2-one] | 0.5
NC(=O)C(Nc1cncc(-c2ccc3c(c2)CNC3=O)c1)c1ccccc1 (stereo not drawn) [Example 31, 2-[5-(l-Oxo-2,3-dihydro-1H-isoindol-5-yl)-pyridin-3-ylamino]-2-phenyl-acetamide] | 294
OC[C@H](Nc1cncc(-c2cccc3[nH]ccc23)c1)c1ccccc1 [Example 17, (R)-2-[5-(1H-Indol-4-yl)-pyridin-3-ylamino]-2-phenyl-ethanol] | 191
OC[C@H](Nc1cncc(-c2cc3cn[nH]c3cn2)c1)c1ccccc1 [Example 25, (R)-2-Phenyl-2-[5-(1H-pyrazolo[3,4-c]pyridin-5-yl)-pyridin-3-ylamino]-ethanol] | 0.7
O=C1Cc2cc(-c3cncc(N[C@@H](CO)c4ccccc4Cl)c3)ccc2N1 [Example 3, 5-{5-[(R)-1-(2-Chloro-phenyl)-2-hydroxy-ethylamino]-pyridin-3-yl}-1,3-dihydro-indol-2-one] | 2.1
CCc1n[nH]c2ccc(-c3cncc(N[C@@H](CO)c4ccccc4)c3)cc12 [Example 21, (R)-2-[5-(3-Ethyl-1H-indazol-5-yl)-pyridin-3-ylamino]-2-phenyl-ethanol] | 1.5
NC(=O)C(Nc1cncc(-c2ccc3c(c2)OCO3)c1)c1ccccc1 (centres unmarked) [Example 35, 2-(5-Benzo[1,3]dioxol-5-yl-pyridin-3-ylamino)-2-phenyl-acetamide] | 559
O=C1Cc2nc(-c3cncc(N[C@@H](CO)c4ccccc4)c3)ccc2N1 [Example 9, 5-[5-((R)-2-Hydroxy-1-phenyl-ethylamino)-pyridin-3-yl]-1,3-dihydro-pyrrolo[3,2-b]pyridin-2-one] | 81.3
NC(=O)C(Nc1cncc(-c2cc3c(cc2F)NC(=O)CC3)c1)c1ccccc1 (centres unmarked) [Example 34, 2-[5-(7-Fluoro-2-oxo-1,2,3,4-tetrahydro-quinolin-6-yl)-pyridin-3-ylamino]-2-phenyl-acetamide] | 1400
CSc1n[nH]c2ccc(-c3cncc(N[C@@H](CO)c4ccccc4)c3)cc12 [Example 22, (R)-2-[5-(3-Methylsulfanyl-1H-indazol-5-yl)-pyridin-3-ylamino]-2-phenyl-ethanol] | 0.5
COCCNC[C@H](Nc1cncc(-c2ccc3[nH]nc(C)c3c2)c1)c1ccccc1 [Example 55, (R)-N^2-(2-Methoxy-ethyl)-N^1-[5-(3-methyl-1H-indazol-5-yl)-pyridin-3-yl]-1-phenyl-ethane-1,2-diamine] | 9.5
NC(=O)C(Nc1cncc(-c2ccc3c(c2)OCCO3)c1)c1ccccc1 (centres unmarked) [Example 36, 2-[5-(2,3-Dihydro-benzo[1,4]dioxin-6-yl)-pyridin-3-ylamino]-2-phenyl-acetamide] | 2510
Cc1n[nH]c2ccc(-c3cncc(N[C@@H](CNC(=O)c4ccccc4)c4ccccc4)c3)cc12 [Example 58, N-{(R)-2-[5-(3-Methyl-1H-indazol-5-yl)-pyridin-3-ylamino]-2-phenyl-ethyl}-benzamide] | 6

Structure (SMILES) | IC50 [nM]
NC(=O)C(Nc1cncc(-c2ccc3c(c2)CCC(=O)N3)c1)c1ccccc1 (centres unmarked) [Example 33, 2-[5-(2-Oxo-1,2,3,4-tetrahydro-quinolin-6-yl)-pyridin-3-ylamino]-2-phenyl-acetamide] | 1890
O=c1[nH]c2ccc(-c3cncc(N[C@@H](CO)c4ccccc4)c3)cc2s1 [Example 13, 6-[5-((R)-2-Hydroxy-1-phenyl-ethylamino)-pyridin-3-yl]-3H-benzothiazol-2-one] | 7.8
O=C1Nc2ccc(-c3cncc(N[C@@H](CO)c4ccccc4)c3)cc2C1(F)F [Example 8, 3,3-Difluoro-5-[5-((R)-2-hydroxy-1-phenyl-ethylamino)-pyridin-3-yl]-1,3-dihydro-indol-2-one] | 37.6
CC(=O)NC[C@H](Nc1cncc(-c2ccc3[nH]ncc3c2)c1)c1ccccc1 [Example 40, N-{(R)-2-[5-(1H-Indazol-5-yl)-pyridin-3-ylamino]-2-phenyl-ethyl}-acetamide] | 1.8
O=C1Cc2cc(-c3cncc(N[C@@H](CO)c4ccccc4)c3)cc(F)c2N1 [Example 11, 7-Fluoro-5-[5-((R)-2-hydroxy-1-phenyl-ethylamino)-pyridin-3-yl]-1,3-dihydro-indol-2-one] | 27.8
Cc1n[nH]c2ccc(-c3cncc(N[C@@H](C(N)=O)c4ccccc4)c3)cc12 [Example 48, (R)-2-[5-(3-Methyl-1H-indazol-5-yl)-pyridin-3-ylamino]-2-phenyl-acetamide] | 1.6
Cc1n[nH]c2ccc(-c3cncc(N[C@@H](CO)c4ccccc4)c3)cc12 [Example 20, (R)-2-[5-(3-Methyl-1H-indazol-5-yl)-pyridin-3-ylamino]-2-phenyl-ethanol] | 0.5
Cc1n[nH]c2ccc(-c3cncc(N[C@@H](CNCCO)c4ccccc4)c3)cc12 [Example 56, 2-{(R)-2-[5-(3-Methyl-1H-indazol-5-yl)-pyridin-3-ylamino]-2-phenyl-ethylamino}-ethanol] | 5
NC(=O)C(Nc1cncc(-c2ccc3c(c2)CC(=O)N3)c1)c1ccccc1 (centres unmarked) [Example 29, 2-[5-(2-Oxo-2,3-dihydro-1H-indol-5-yl)-pyridin-3-ylamino]-2-phenyl-acetamide] | 67.2
Cc1n[nH]c2ccc(-c3cncc(N[C@@H](CNC(=O)CO)c4ccccc4)c3)cc12 [Example 54, 2-Hydroxy-N-{(R)-2-[5-(3-methyl-1H-indazol-5-yl)-pyridin-3-ylamino]-2-phenyl-ethyl}-acetamide] | 1.2
O=C1Cc2cc(-c3cncc(N[C@H](CO)c4ccccc4Cl)c3)ccc2N1 [Example 4, 5-{5-[(S)-1-(2-Chloro-phenyl)-2-hydroxy-ethylamino]-pyridin-3-yl}-1,3-dihydro-indol-2-one] | 157
Cc1n[nH]c2ccc(-c3cncc(NC(CNS(C)(=O)=O)c4ccccc4)c3)cc12 (centres unmarked) [Example 50, N-{2-[5-(3-Methyl-1H-indazol-5-yl)-pyridin-3-ylamino]-2-phenyl-ethyl}-methanesulfonamide] | 2.8
NC(=O)[C@H](Nc1cncc(-c2ccc3[nH]nc(Cl)c3c2)c1)c1ccccc1 [Example 59, (R)-2-[5-(3-Chloro-1H-indazol-5-yl)-pyridin-3-ylamino]-2-phenyl-acetamide] | 2.3
NC(=O)C(Nc1cncc(-c2ccc3[nH]nc(F)c3c2)c1)c1ccccc1 (centres unmarked) [Example 42, 2-[5-(3-Fluoro-1H-indazol-5-yl)-pyridin-3-ylamino]-2-phenyl-acetamide] | 3.5
OC[C@H](Nc1cncc(-c2ccc3[nH]nnc3c2)c1)c1ccccc1 [Example 26, (R)-2-[5-(1H-Benzotriazol-5-yl)-pyridin-3-ylamino]-2-phenyl-ethanol] | 9.4
NC(=O)[C@H](Nc1cncc(-c2ccc3[nH]ncc3c2)c1)c1ccccc1 [Example 38, (R)-2-[5-(1H-Indazol-5-yl)-pyridin-3-ylamino]-2-phenyl-acetamide] | 0.9
COCCNC[C@H](Nc1cncc(-c2ccc3[nH]nc(F)c3c2)c1)c1ccccc1 [Example 45, (R)-N^1-[5-(3-Fluoro-1H-indazol-5-yl)-pyridin-3-yl]-N^2-(2-methoxy-ethyl)-1-phenyl-ethane-1,2-diamine] | 29.5
CC1(C)C(=O)Nc2ccc(-c3cncc(NC(C(N)=O)c4ccccc4)c3)cc21 (centres unmarked) [Example 32, 2-[5-(3,3-Dimethyl-2-oxo-2,3-dihydro-1H-indol-5-yl)-pyridin-3-ylamino]-2-phenyl-acetamide] | 813
CS(=O)(=O)NC[C@H](Nc1cncc(-c2ccc3[nH]ncc3c2)c1)c1ccccc1 [Example 41, N-{(R)-2-[5-(1H-Indazol-5-yl)-pyridin-3-ylamino]-2-phenyl-ethyl}-methanesulfonamide] | 0.3
